Like-named read-outs stand apart in the source and are kept apart here. Ends that are not written are not given here. Peptide text beside a SMILES is read from it.
Legend:
[1] = system: E. coli pPROTet-GST; experiment: Lethal i.p. infection in mice, vector control strain; type: in vivo, CD-1 female mice; conditions: E. coli pPROTet-GST 10^8 cfu/mouse i.p., i.p. ×2
Description: Groups 5 through 8 served as vector control. The control inoculum was prepared from E. coli pPROTet-GST whose vector carries a gene encoding glutathione S-transferase, but no Pro-3 peptide. E. coli pPROTet-GST was cultured at 37° C. for 17 hr in Luria-Bertani broth containing spectinomycin and chloramphenicol, and then 100 μl of the culture were diluted to 1 ml with the medium for reading OD at 600 nm (0.2858, the medium as blank). Then 3×10^9 cfu (1.05 ml) from the overnight culture were diluted to 15 ml with 0.01 M phosphate buffered saline containing 8% hog gastic mucin. Each mouse of groups 5 through 8 was injected (i.p.) with E. coli pPROTet-GST inocula equivalent to 1×10^8 cfu/mouse (lethal dose).
(§1) One and four hours after the inoculation, groups 1 and 5 animals received a saline injection i.p. at 10 ml/kg; groups 2, 3 and 4 animals received i.p. injections of anhydrotetracycline at 2, 1 and 0.5 mg/kg (diluted in saline), respectively; groups 6, 7 and 8 received i.p. injections of anhydrotetracycline at 2, 1 and 0.5 mg/kg, respectively. The injection volume for all the animals was 10 ml/kg.

[2] = system: E. coli JM109/pSC/pC^3844; experiment: Lethal i.p. infection in mice, induced in vivo expression of Pro-3; set-up: species or system CD-1 female mice; conditions: E. coli JM109/pSC/pC^3844 10^8 cfu/mouse i.p., i.p. ×2
Description: Intracellularly expressed Pro-3 was expected to bind to and inhibit a specific essential cellular target in a manner similar to that of an antimicrobial drug. Pro-3 was expected to cure the infection when its expression was induced in an animal model of bacterial infection. An established animal infection model was used to test this concept (C. O. Onyeji et al., Antimicrob. Agents Chemother. 38:1112-1117 (1994)).
Eight groups of CD-1 female mice (5 mice per group, Charles River Laboratories; Wilmington, Mass.) weighing 20-24 g were used in this experiment. The inoculum was prepared from E. coli JM109/pSC/pC^3844 which was cultured at 37° C. for 17 hr in Luria-Bertani broth containing spectinomycin and chloramphenicol, and then 100 μl of the culture was diluted to 1 ml with medium for reading OD at 600 nm (0.2403, the medium as blank). The turbidity of a 0.5 McFarland standard is equivalent to OD6000.1, or 10^8 cfu/ml. Then 3×10^9 cfu (colony-forming units) of E. coli JM109/pSC/pC^3844 (1.25 ml) from the overnight culture were diluted to 15 ml with 0.01 M phosphate buffered saline (Sigma P-0261) containing 8% hog gastric mucin (Sigma M-2378), 100 μg/ml spectinomycin and 68 μg/ml chloramphenicol. Each mouse of groups 1 through 4 was injected with 0.5 ml of the inoculum intraperitoneally (i.p.), equivalent to 1×10^8 cfu/mouse (lethal dose).
as §1

[3] = target: Sa MetRS (Staphylococcus aureus, UniProt Q5HII6); experiment: Sa MetRS/Met1-F fluorescence polarization binding assay
Description: A non-radioactive, homogeneous, sensitive fluorescent polarization (FP) assay has been developed for Staphylococcus aureus MetRS (Sa MetRS) and Met1 peptide. FP is a ratiometric detection method which is capable of discriminating between free and bound states of fluorescently labeled tracer based on differences in the rotation rates of the two states. The Sa MetRS FP binding assay involves the incubation of fluorescently labeled Met1 peptide (Met1-F) with purified Sa MetRS. In the bound state, Met1-F is bound to Sa MetRS and an increase in polarization signal is detected using a FP detection system. In the free state, Met1-F is not bound to Sa MetRS and there is a decrease in polarization signal.
A 96-well plate (Costar cat# 3915) was blocked for 1 hour at room temperature with 150 μL/well 2 mg/ml bovine serum albumin (BSA) (FisherBiotech cat# BP1600-100) in 0.1 M NaHCO3. The plate was then washed manually three times with 150 μL/well of TBS (10 mM Tris-HCl pH 8.0, 150 mM NaCl). […] The plate was then read in an LJL Analyst (LJL Biosystems, Sunnyvale Calif.) in fluorescent polarization mode.
The FP assay for Sa MetRS inhibition has been evaluated to see if it is amenable for high throughput screening (HTS) for drug discovery. […] The IC50 for Met1 was tested on the plate in duplicate and the results were consistent with previously determined values. […]

[4] = target: S. aureus MetRS (Staphylococcus aureus, UniProt Q5HII6); experiment: S. aureus MetRS aminoacylation (functional charging) assay; type: biochemical
Description: The activity of S. aureus MetRS was monitored by the aminoacylation reaction. The enzyme was diluted in 50 mM HEPES, pH 7.55, 5 mM DTT and 0.01% BSA. A typical 50 μL reaction mixture contained 30 mM HEPES, pH 7.5, 10 mM MgCl2, 30 mM KCl, 90 μM E. coli tRNA, 2 mM ATP and 5 μM [^3H]-methionine (10 Ci/mmol). The reaction was initiated by addition of enzyme at 25° C. At 4 different timepoints, 10 μL of the reaction was quenched into 150 μL cold 5% TCA on a Millipore filter plate. The filter plate is then washed three times with cold 5% TCA followed by water and then ethanol. The filter plate was dried before addition of 100 μL Packard Microscint-20 and counted on a Packard Top-Count microplate scintillation counter.
Inhibition studies were performed for the peptides against two of the substrates, ATP and methionine. This was done at varying concentrations of peptides by holding the concentration of one substrate at its K value (1.5 mM for ATP and 5 μM for methionine), while varying the other substrate concentration around its Km value. The initial velocity data obtained were then analyzed using GraFit.

[5] = system: E. coli JM109/pSC/pC^3844; experiment: E. coli growth in culture upon regulated expression of Pro-3/GST; type: cell-based, Escherichia coli; conditions: anhydrotetracycline induction, compared with GST alone
Description: Overnight cultures of JM109/pSC cells harboring pC^3844 (JM109/pSC/pC^3844), or pPROTet-GST (same as pC^3844 without the Pro-3 peptide sequence) were diluted 100-fold in fresh LB medium containing 34 μg/mL chloramphenicol and 50 μg/mL spectinomycin. After 2 hours growth at 37° C., 100 μL aliquots of each of these bacterial cultures were transferred to wells of a 96-well microtiter plate, with or without 10 ng of anhydrotetracycline dissolved in 1 μL ethanol. The growth of bacterial cultures, which were constantly under agitation, was monitored with a plate reader (SpectraMAX-250, Molecular Devices).

[6] = target: T1, E. coli ProRS (Escherichia coli, UniProt P16659); experiment: E. coli ProRS tRNA charging (aminoacylation) inhibition; type: biochemical; conditions: read-out: K, (inhibition of E. coli ProRS aminoacylation activity)
T1 construct: made in house
T1 sequence (P16659 whole entry, looked up): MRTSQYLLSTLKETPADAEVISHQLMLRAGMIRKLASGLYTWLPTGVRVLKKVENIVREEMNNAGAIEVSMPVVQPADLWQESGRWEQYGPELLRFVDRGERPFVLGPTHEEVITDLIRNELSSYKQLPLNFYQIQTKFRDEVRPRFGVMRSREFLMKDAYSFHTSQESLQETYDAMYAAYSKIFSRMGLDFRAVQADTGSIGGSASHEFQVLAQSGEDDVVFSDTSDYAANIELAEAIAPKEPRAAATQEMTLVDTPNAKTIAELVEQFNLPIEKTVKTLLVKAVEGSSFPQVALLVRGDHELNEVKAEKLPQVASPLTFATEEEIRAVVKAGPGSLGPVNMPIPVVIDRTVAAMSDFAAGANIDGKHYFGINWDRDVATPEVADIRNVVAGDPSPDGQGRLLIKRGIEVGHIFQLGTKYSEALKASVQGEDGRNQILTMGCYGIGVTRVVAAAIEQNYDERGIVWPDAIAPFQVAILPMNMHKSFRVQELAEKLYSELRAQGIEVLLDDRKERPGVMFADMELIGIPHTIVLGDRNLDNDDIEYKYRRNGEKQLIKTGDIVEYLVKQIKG
Description: In order to produce pure protein for peptide selection, the E. coli ProRS gene (Genbank accession number: M97858) was PCR amplified and cloned into the pET-20b vector (Novagen) using standard molecular cloning protocols (J. Sambrook, et al., Molecular Cloning: A Laboratory Manual, 2nd edition, Cold Spring Harbor Laboratory Press, 1989). The overexpressed ProRS was purified sequentially on Q- and SP-Sepharose columns. […] Thirteen clones from phages that were identified as having a high affinity to ProRS were sequenced. These clones share 4 different sequences, 3 of which are closely related (Table l). See Example 4 of WO98/19162, published 7 May 1998.
The peptide having sequence number 3 was synthesized and tested for inhibition of tRNA charging activity of E. coli ProRS. […] This peptide is called Pro-3 (also, Pro3).
The expressed Pro-3/GST fusion protein was purified on a glutathione-agarose affinity column according to a procedure provided by Pharmacia (see, cg., procedures manual from Pharmacia P-L Biochemicals, Inc.: GST Gene Fusion System, regarding use of pGEX expression vectors and glutathione-S-transferase fusion proteins, 1993). The N-terminal sequence of the purified protein was determined by Edman cycles and confirmed to have the expected Pro-3 peptide sequence. […]

[7] = target: E. coli prolyl-tRNA synthetase (ProRS) (Escherichia coli) (UniProt P16659); experiment: inhibition of ProRS enzyme activity, purified fusion protein
[8] = target: E. coli prolyl-tRNA synthetase (ProRS) (Escherichia coli) (UniProt P16659); experiment: cell-based or functional assay
[9] = target: T2, E. coli prolyl-tRNA synthetase (ProRS) (Escherichia coli), P16659; experiment: inhibition of tRNA charging activity, synthetic peptide
T2 chain: T1 sequence (P16659 whole entry, looked up)

Chain of S. aureus MetRS (Q5HII6 whole entry): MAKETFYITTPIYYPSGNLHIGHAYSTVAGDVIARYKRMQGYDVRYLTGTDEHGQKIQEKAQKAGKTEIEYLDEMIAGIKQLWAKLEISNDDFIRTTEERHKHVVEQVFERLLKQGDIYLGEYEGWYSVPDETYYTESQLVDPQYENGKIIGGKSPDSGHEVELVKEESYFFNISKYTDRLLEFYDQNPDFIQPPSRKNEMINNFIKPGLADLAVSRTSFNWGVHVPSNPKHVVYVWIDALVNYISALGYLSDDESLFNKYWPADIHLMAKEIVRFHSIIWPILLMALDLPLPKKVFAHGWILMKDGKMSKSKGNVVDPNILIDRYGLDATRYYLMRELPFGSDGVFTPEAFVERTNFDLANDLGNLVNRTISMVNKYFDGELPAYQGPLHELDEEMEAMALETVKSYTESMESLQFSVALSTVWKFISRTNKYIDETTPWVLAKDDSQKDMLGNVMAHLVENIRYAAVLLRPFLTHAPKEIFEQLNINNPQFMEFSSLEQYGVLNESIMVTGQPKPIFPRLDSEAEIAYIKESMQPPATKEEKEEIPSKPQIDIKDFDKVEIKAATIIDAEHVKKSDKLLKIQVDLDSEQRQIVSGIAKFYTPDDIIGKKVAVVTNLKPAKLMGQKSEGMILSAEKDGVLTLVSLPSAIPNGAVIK
Chain of Sa MetRS (Q5HII6 whole entry): as above

Cc1c2c(c(O)c3c(O)cccc13)C(=O)[C@]1(O)C(=O)C(C(N)=O)=C(O)[C@@H](N(C)C)[C@@H]1C2 [Anhydrotetracycline, anhydrotetracycline]
Survival (7 days) ([1]; inducer 0.5 mg/kg): 0/5 | Survival (7 days) ([1]; inducer 1 mg/kg): 0/5 | Survival (7 days) ([1]; inducer 2 mg/kg): 0/5 | Survival (7 days) ([2]; inducer 0.5 mg/kg): 5/5 | Survival (7 days) ([2]; inducer 1 mg/kg): 5/5 | Survival (7 days) ([2]; inducer 2 mg/kg): 5/5

CSCC[C@H](NC(=O)[C@@H]1CCCN1C(=O)[C@H](Cc1c[nH]c2ccccc12)NC(=O)[C@H](CCCNC(=N)N)NC(=O)[C@H](CC(C)C)NC(=O)[C@H](CCC(N)=O)NC(=O)[C@H](Cc1c[nH]c2ccccc12)NC(=O)[C@@H](NC(=O)[C@H](CC(N)=O)NC(=O)[C@@H]1CCCN1C(=O)[C@@H](N)CC(=O)O)[C@@H](C)O)C(=O)N[C@@H](Cc1c[nH]cn1)C(=O)O [JT01, DPNTWQLRWPMH] (H-DPNTWQLRWPMH-OH; N-terminus and C-terminus assumed)
IC50 [3]: 700 nM | IC50 [4]: 0.2 µM | Ki ([4]; Kl (ATP), ATP varied, methionine held at 5 μM): 13 nM | Ki ([4]; Kl (methionine), methionine varied, ATP held at 1.5 mM): 138 nM | solubility: > 100 µM

MWDLPYIWSRPV [JT02]
Ki ([4]; methionine varied, ATP held at 1.5 mM, read-out: Kl (methionine)): 1700 nM

Pro-3/GST: Pro-3 peptide fused through a 4-amino acid linker to glutathione S-transferase (GST), expressed from pC^3844 (SREWHFWRDYNPTSREGGG; also: fused to GST through a linker, GST left off)
E. coli growth (OD600) upon expression [5]: inhibits E. coli growth | Ki [6]: 180 nM

SREWHFWRDYNPTSREGGG [Pro-3/GST fusion protein]
Ki [7]: 180 nM | Charged tRNA (tRNA-Pro) in cells, +Inducer [8]: 23% | Charged tRNA (tRNA-Pro) in cells, -Inducer [8]: 70% | Survival (7 days), mice infected with E. coli JM109/pSC/pC3844, anhydrotetracycline 0.5 mg/kg i.p. x2 [8]: 5 of 5 mice | Survival (7 days), mice infected with E. coli JM109/pSC/pC3844, anhydrotetracycline 1 mg/kg i.p. x2 [8]: 5 of 5 mice | Survival (7 days), mice infected with E. coli JM109/pSC/pC3844, anhydrotetracycline 2 mg/kg i.p. x2 [8]: 5 of 5 mice | Survival (7 days), mice infected with E. coli JM109/pSC/pC3844, saline (no induction) [8]: 0 of 5 mice

SREWHFWRDYNPTSR (modifications not checked) [Pro-3 peptide (…)]
Ki [9]: 300 nM

Reference: patent US6846625B1, “Method for identifying validated target and assay combination for drug development” (priority 1998, dated 2005)
